The source of these data is article PMC5216742, “Discovery and characterization of a novel potent type II native and mutant BCR-ABL inhibitor (CHMFL-074) for Chronic Myeloid Leukemia (CML)” (Oncotarget, 2016).

By Kd is commonly meant a measure of binding affinity in units of concentration. High values mean lower affinity, low ones higher affinity. One may read the GI50 as the concentration that inhibits growth by half. The low end stands for greater sensitivity of the cells, the high end for lower sensitivity of the cells.

Assay [1] concerns the target T1, ABL1(H396P)-phosphorylated (Homo sapiens, UniProt P00519, H396P).
T1 construct: purchased DiscoveRx (KinomeScan service)
Kind of assay: KinomeScan profiling. It is filed as binding. The following applies: 1 µM CHMFL-074; read-out: % Control.

Assay [2] has as its target T2, ABL1(Y253F)-phosphorylated (Homo sapiens, UniProt P00519, Y253F).
T2 construct: purchased DiscoveRx (KinomeScan service)
Kind of assay: KinomeScan profiling. It is filed as binding. The following applies: 1 µM CHMFL-074; read-out: % Control.

The target in a further assay is T3, ABL1-nonphosphorylated (Homo sapiens, UniProt P00519).
T3 construct: purchased DiscoveRx (KinomeScan service)
The experiment in a line: KinomeScan profiling. It is filed as binding. The following applies: 1 µM CHMFL-074; read-out: % Control.

The target of another assay is T4, ABL1-phosphorylated (Homo sapiens, UniProt P00519).
T4 construct: purchased DiscoveRx (KinomeScan service)
Kind of assay: KinomeScan profiling. In kind it is binding. The following applies: 1 µM CHMFL-074; read-out: % Control.

A further assay deals with T5, ABL2 (Homo sapiens, UniProt P42684).
T5 construct: purchased DiscoveRx (KinomeScan service)
T5 sequence (P42684 whole entry): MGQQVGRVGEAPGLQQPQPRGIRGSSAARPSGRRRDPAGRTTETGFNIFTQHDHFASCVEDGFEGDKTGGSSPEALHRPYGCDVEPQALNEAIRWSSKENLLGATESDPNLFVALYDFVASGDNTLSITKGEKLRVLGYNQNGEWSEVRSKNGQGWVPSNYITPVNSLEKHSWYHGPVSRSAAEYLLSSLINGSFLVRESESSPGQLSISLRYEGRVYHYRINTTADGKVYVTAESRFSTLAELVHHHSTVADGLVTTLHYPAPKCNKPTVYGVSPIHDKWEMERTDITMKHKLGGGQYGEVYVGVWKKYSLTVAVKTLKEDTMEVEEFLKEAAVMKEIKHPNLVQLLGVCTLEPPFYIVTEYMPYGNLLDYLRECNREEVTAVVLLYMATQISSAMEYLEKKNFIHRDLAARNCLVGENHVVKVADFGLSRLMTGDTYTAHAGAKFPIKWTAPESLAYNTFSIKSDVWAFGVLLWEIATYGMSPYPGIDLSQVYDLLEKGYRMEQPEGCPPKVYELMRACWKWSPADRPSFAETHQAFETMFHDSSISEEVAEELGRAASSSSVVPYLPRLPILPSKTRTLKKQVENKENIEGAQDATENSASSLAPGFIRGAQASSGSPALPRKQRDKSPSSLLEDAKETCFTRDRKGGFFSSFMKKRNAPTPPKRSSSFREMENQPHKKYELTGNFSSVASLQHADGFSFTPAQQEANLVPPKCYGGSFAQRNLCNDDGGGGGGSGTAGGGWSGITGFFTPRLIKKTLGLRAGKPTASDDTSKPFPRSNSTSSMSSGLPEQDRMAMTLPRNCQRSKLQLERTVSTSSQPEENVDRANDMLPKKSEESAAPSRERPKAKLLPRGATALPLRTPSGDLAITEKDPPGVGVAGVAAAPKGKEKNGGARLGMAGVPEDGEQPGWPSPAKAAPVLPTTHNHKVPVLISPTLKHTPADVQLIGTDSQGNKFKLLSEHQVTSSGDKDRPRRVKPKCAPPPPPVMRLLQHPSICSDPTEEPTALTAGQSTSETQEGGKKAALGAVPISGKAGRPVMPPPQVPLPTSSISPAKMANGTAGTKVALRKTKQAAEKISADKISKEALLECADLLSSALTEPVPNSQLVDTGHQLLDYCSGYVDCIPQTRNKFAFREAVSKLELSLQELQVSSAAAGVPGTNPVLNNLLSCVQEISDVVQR
Kind of assay: KinomeScan profiling. In kind it is binding. The following applies: 1 µM CHMFL-074; read-out: % Control.

The target of a further assay is T6, DDR1 (Homo sapiens, UniProt Q08345).
T6 construct: purchased DiscoveRx (KinomeScan service)
T6 sequence (Q08345 19-913): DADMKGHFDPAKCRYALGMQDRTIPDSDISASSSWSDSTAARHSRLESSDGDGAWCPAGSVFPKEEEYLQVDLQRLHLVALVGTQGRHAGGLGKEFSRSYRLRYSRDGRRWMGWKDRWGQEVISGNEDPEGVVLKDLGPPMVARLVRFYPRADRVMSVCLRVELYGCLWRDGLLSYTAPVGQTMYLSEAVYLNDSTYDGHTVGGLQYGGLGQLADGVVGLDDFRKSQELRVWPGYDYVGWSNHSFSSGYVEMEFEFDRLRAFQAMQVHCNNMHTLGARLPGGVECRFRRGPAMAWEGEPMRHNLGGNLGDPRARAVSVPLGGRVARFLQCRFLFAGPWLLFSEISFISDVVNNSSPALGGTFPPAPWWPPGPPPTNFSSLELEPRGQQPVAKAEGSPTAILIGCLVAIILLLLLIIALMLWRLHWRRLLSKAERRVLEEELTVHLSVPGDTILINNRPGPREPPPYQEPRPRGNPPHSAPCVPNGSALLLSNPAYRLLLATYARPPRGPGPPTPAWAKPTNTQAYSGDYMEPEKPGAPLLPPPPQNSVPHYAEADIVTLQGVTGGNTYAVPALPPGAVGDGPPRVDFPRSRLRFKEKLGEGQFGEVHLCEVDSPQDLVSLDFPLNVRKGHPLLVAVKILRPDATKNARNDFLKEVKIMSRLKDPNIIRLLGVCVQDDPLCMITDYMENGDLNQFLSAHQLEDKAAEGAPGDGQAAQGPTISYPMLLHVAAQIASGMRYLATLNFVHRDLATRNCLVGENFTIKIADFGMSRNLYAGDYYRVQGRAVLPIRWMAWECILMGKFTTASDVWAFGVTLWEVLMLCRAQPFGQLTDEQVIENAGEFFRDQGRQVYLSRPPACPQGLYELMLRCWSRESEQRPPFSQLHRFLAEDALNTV
Kind of assay: KinomeScan profiling. It is filed as binding. Conditions: 1 µM CHMFL-074; read-out: % Control.

The target of the next assay is T7, KIT(L576P) (Homo sapiens, UniProt P10721, L576P).
T7 construct: purchased DiscoveRx (KinomeScan service)
T7 sequence (P10721 26-976 L576P): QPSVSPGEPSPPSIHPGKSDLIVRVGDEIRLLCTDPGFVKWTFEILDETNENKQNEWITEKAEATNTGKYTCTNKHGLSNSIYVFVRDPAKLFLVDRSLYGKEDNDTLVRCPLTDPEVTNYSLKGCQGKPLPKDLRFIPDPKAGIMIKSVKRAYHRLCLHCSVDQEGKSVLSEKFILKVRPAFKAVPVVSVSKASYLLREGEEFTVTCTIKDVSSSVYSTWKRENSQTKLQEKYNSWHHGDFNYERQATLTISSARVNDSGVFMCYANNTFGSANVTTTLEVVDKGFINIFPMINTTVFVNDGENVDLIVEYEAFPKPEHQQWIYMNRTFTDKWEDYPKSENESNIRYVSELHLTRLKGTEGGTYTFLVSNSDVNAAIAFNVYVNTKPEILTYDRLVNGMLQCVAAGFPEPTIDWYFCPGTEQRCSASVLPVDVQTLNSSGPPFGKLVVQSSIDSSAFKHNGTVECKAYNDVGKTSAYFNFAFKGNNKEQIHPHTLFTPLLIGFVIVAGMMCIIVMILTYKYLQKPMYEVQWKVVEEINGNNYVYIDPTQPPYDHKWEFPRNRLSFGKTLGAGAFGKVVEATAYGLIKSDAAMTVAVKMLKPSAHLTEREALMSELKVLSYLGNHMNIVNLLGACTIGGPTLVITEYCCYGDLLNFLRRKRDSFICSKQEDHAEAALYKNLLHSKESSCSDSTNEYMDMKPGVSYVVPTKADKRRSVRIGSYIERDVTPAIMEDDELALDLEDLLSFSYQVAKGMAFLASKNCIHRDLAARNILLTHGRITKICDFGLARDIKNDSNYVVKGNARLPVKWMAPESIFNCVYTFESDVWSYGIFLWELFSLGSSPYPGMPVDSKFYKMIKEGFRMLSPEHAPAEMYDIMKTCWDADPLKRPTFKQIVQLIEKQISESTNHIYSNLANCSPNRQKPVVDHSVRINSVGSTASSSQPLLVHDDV
The experiment in a line: KinomeScan profiling. In kind it is binding. The following applies: 1 µM CHMFL-074; read-out: % Control.

Another assay addresses T8, ABL1 kinase (Homo sapiens, UniProt P00519).
T8 construct: A construct encoding c-ABL residues 229–500 with a His tag; made in house; host or cells: SF9 insect cells (baculovirus, pFASTHTA)
Kind of assay: Microscale thermophoresis (MST) binding Kd assay. The following applies: binding Kd against ABL1 kinase. The method, then:
A construct encoding c-ABL residues 229–500 with a His tag was cloned into baculovirus expression vector pFASTHTA. The protein was expressed by infecting SF9 cells with high titer viral stocks for 48 hours. Cells were harvested and lysed in 30 mM Tris pH 7.4, 150 mM NaCl, 3 mM KCl, 10% glycerol, 1 mM PMSF, 2 mM TCEP, 1 mM ADP, 20 mM Imidazole. The supernatant was loaded to Ni-NTA Column (QIAGEN, 1018244). Then the proteins were gradient washed using the same buffer with 50 mM, 100 mM imidazole, then the ABL protein was eluted with Elution buffer (20 mM Tris, 500 mM NaCl, 1% glycerol, 1 mM TCEP, 0.5 mM ADP, 300 mM Imidazole, pH 8.0). The eluted protein was loaded on desalt column PD-10(GE) to change the buffer to 20 mM Tris, 500 mM NaCl, 1% glycerol, 2 mM TCEP, pH 8.0. The protein was concentrated to 1 mg/ml and aliquots were frozen and stored at −80 °C.
The Kd was measured using the Monolith NT.115 from Nanotemper Technologies. Proteins were fluorescently labeled according to the manufacturer's protocol. […] The sample was loaded into the NanoTemper glass capillaries and microthermophoresis carried out using 20% LED power and 30% MST Power. KD were calculated using the mass action equation via the NanoTemper software from duplicate reads of triplicate experiments.

A further assay has as its system BaF3. Kind of assay: Anti-proliferation, BaF3 isogenic cell lines. In kind it is cell-based. Conditions: Mus musculus, BaF3, 72 h. From the text: (§1) Retroviral constructs for fusion kinases were made based on the pMSCVpuro (Clontech) backbone. For TEL fusion vectors, the first 1 kb of human TEL gene with an artificial myristoylation sequence ([…]) was cloned into pMSCVpuro retroviral vector, followed by a 3xFLAG tag sequence and a stop codon; for BCR fusion vectors, the first 2.8 kb coding region of p210 amplified from K562 cell line was used in fusion constructs. Then the kinase domain coding sequences were inserted in-frame between TEL/BCR and 3xFLAG sequences. All mutagenesis were performed using the QuikChange Site-Directed Mutagenesis Kit (Stratagene) following the manufacturer's instructions. Retrovirus was packaged in HEK293T cells by transfecting kinase-fusion MSCV vectors together with two helper plasmids, virus supernatants were harvested 48 hours after transfection and filtered before infection. Then BaF3 cells were infected with harvested virus supernatants using spinoculation protocol and stable cell lines were obtained by puromycin selection for 48 hours. A second selection in the absence of IL-3 was performed to obtain IL-3 independent cell lines that solely depend on the introduced kinase activities for cell proliferation.
(§2) A density of 1 × 10^4 to 2.5 × 10^4 cells/mL cells were mixed with various concentrations of compounds then 100 μL suspension was added to each well and incubated for 72 hours. Cell viability was determined using the CellTiter-Glo assay (Promega, USA) or CCK-8 assay (Beboy, China). Both assays were performed according to the manufacturer instructions. For CellTiter-Glo assay, luminescence was determined in a multi-label reader (Envision, PerkinElmer, USA). […] Data were normalized to control group (DMSO). GI50 were calculated using Prism 6.0 (GraphPad Software, San Diego, CA).

For a further assay, the system named is P210-H369P-BaF3. The experiment in a line: Anti-proliferation, BaF3 isogenic cell lines. It is filed as cell-based. The following applies: Mus musculus, BaF3, 72 h.
Text: as §1, §2

Another assay concerns P210-Q252H-BaF3. Kind of assay: Anti-proliferation, BaF3 isogenic cell lines. It is filed as cell-based. The following applies: Mus musculus, BaF3, 72 h.
Text: as §1, §2

A further assay relates to TEL-DDR1-BaF3. The experiment in a line: Anti-proliferation, BaF3 isogenic cell lines. In kind it is cell-based. Conditions: Mus musculus; TEL-DDR1-BaF3, 72 hours.
Text: as §1, §2

Another assay relates to Tel-HCK-BaF3. The experiment in a line: Anti-proliferation, BaF3 isogenic cell lines. In kind it is cell-based. The following applies: Mus musculus, BaF3, 72 h.
Text: as §1, §2

Another assay relates to HL-60. Kind of assay: Anti-proliferation, intact cancer cell lines. It is filed as cell-based. Conditions: Homo sapiens, HL-60, 72 h. The method, then:
(§3) The K562 (CML), KU812 (CML), MEG-01 (CML), MV4-11 (AML), MOLM14 (AML), U937 (AML), REC-1 (Human B-cell lymphoma cell), HL-60 (Human promyelocytic leukemia cells), MEC-1(CLL), CHL (Hamster lung cell), CHO (Hamster ovary cell) cell lines were obtained from American Type Culture Collection (Manassas, VA). All the cells were grown in a humidified incubator (Thermo, USA) at 37°C under 5% CO2. CHO cells were maintained in DMEM supplemented with 10% FBS, 1% penicillin/strepto-mycin. MV4-11 (AML) were grown in IMDM supplemented with 10% FBS, 1% penicillin/streptomycin. […] For suspension cells, cells were collected by spinning down at 800 rpm/min for 5 min before use.
as §2

Another assay relates to K562. Kind of assay: Anti-proliferation, intact cancer cell lines. Conditions: Homo sapiens; K562 (CML), 72 hours. In kind it is cell-based. The method, then:
as §3, §2

The test system of a further assay is KU812. The experiment in a line: Anti-proliferation, intact cancer cell lines. It is filed as cell-based. Conditions: Homo sapiens; KU812 (CML), 72 hours. The method, then: as §3, §2
Another assay deals with MEC-1. The experiment in a line: Anti-proliferation, intact cancer cell lines. In kind it is cell-based. The following applies: Homo sapiens, MEC1, 72 h. Here is the method:
as §3, §2

Another assay relates to MEG-01. Kind of assay: Anti-proliferation, intact cancer cell lines. In kind it is cell-based. Conditions: Homo sapiens, MEG-01, 72 h. The method, then: as §3, §2
A further assay deals with REC-1. Kind of assay: Anti-proliferation, intact cancer cell lines. In kind it is cell-based. The following applies: Homo sapiens, Rec1, 72 h. The method, then: as §3, §2
Another assay has as its system U937. The experiment in a line: Anti-proliferation, intact cancer cell lines. It is filed as cell-based. The following applies: Homo sapiens, U-937, 72 h. Here is the method:
as §3, §2

Where “and” joins values, the source holds several entries; their conditions need not be identical. Equal entries are not always repeated.

On to `Cc1ccc(NC(=O)c2ccc(CN3CCN(C)CC3)c(C(F)(F)F)c2)cc1OC1CCN(C(=O)c2cccnc2)CC1` [CHMFL-074], for which the remaining binding at 1 µM in [1] is 0.3%; in assay [2], 0.3%; on ABL1-nonphosphorylated, 0.25%; at ABL1-phosphorylated, 0.2%; at ABL2, 0.8%; at DDR1, under 1%. Besides, at KIT(L576P), the remaining binding at 1 µM worked out at 1%. Further, on ABL1 kinase, the Kd is 24 nM and 24.2 nM. Also, the GI50 in the assay on BaF3 is over 10000 nM; with P210-H369P-BaF3, 1040 nM; with P210-Q252H-BaF3 it was 118 nM; in the assay on TEL-DDR1-BaF3, 3520 nM; in the assay on Tel-HCK-BaF3 it was over 10000 nM; in the assay with HL-60 it was over 10000 nM. For the same compound, the GI50 in the assay on K562 is 56 nM; in the assay with KU812 it was 57 nM; with MEC-1 it was over 10000 nM; with MEG-01, 18 nM; in the assay on REC-1, over 10000 nM; in the assay with U937, over 10000 nM.
